Columns and labels:
Format in all cases: in vivo, mouse
[1] = tested on: Fas-Lpr/P23H mice; assay: Retinal histology and IHC staining (DAPI, m-opsin, rhodopsin); conditions: HCQ versus untreated
Description: (§1) This study was conducted in the Lpr/P23H mouse line, a Fas-deficient mouse line that is also a model of retinitis pigmentosa. Hydroxychloroquine (HCQ) was given in the drinking water at 1.2 mg/ml starting at 21 days post-natal (P21) to reduce autophagy flux (FIG. 1). Photoreceptor death was assessed by Terminal deoxynucleotidyl transferase (TdT) dUTP Nick-End Labeling (TUNEL) cell counts. Retinal structure was examined by histology and optical coherence tomography (OCT) analysis. Electroretinogram (ERG) recording and immunohistochemistry (IHC) staining of rhodopsin and m-opsin were performed to evaluate the retinal function. Transcript levels of inflammatory cytokines, CCL-2 and CCL-3, were analyzed by rt-PCR.

[2] = tested on: Fas-Lpr/P23H mice; assay: ONL thickness by optical coherence tomography (OCT), Fas-deficient retinitis pigmentosa model; conditions: 3- and 4-months old, OCT at 250 and 500 μm from the optic nerve, inferior and superior retina, HCQ in drinking water versus untreated
Description: as §1
A proxy for retinal cell death is […] (ONL) thickness, with thicker ONLs correlating to less cell death.

[3] = tested on: CCL-3; assay: Transcript level of inflammatory cytokine CCL-3 in retina by rt-PCR; conditions: Fas-Lpr/P23H mice, HCQ 1.2 mg/ml in drinking water from P21, versus untreated mice
Description: as §1

[4] = tested on: CCL-2; assay: Transcript level of inflammatory cytokine CCL-2 in retina by rt-PCR; conditions: Fas-Lpr/P23H mice, HCQ 1.2 mg/ml in drinking water from P21, versus untreated mice
Description: as §1

[5] = tested on: Fas-Lpr/P23H mice; assay: Electroretinogram (ERG) recording, Fas-deficient retinitis pigmentosa model; conditions: 3-month and 4-month old Fas-LPR/P23H mice; HCQ versus untreated
Description: as §1
Photoreceptor function was assessed using electroretinograms (ERGs).

[6] = tested on: Fas-Lpr/P23H mice; assay: TUNEL cell counts for photoreceptor death in retina; conditions: HCQ 1.2 mg/ml in drinking water from P21, versus untreated mice, FIG. 2B
Description: as §1

In the case of `CCN(CCO)CCCC(C)Nc1ccnc2cc(Cl)ccc12` (centres unmarked) [HCQ, Hydroxychloroquine], the “photoreceptor survival (histological images)” value ([1]; 3-month and 4-month old Fas-LPR/P23H mice, FIG. 6) is reported as “greater photoreceptor survival”, the “survival of cell bodies (DAPI), cones (m-opsin) and rods (rhodopsin), IHC images” value ([1]; 3-month and 4-month old Fas-Lpr/P23H mice, FIG. 7A, 7B) is reported as “greater survival of cell bodies, cones, and rods” and the “optic nerve layer (ONL) thickness” value [2] is reported as “significantly greater ONL thickness”. For the same compound, the “production of inflammatory cytokine CCL-3” value [3] was “lowered production”, the “production of inflammatory cytokine CCL-2” value [4] was “lowered production” and the “scotopic ERG a-wave amplitude” value [5] was “significantly greater amplitude”. For the same compound, the “scotopic ERG b-wave amplitude” value [5] was “significantly greater amplitude” and the “TUNEL-positive cell counts in the retina” value [6] was “statistically significantly fewer”.
